Source: patent publication US20260226086A1, “COMPOUNDS AND COMPOSITIONS AS STAT3 DEGRADERS AND USES THEREOF” (REGENTS OF THE UNIVERSITY OF MICHIGAN, priority 2023, published 2026)

Experiments:
Format in all cases: cell-based
SU-DHL-1 cells = assay: CellTiter-Glo 2.0 cell viability assay, SU-DHL-1; settings: Homo sapiens, 96 h, 4 days
Outline: (§1)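 1000 cells per well exposed to serially diluted compounds for 4 days at 37 °C, 5% CO2. Viability measured by CellTiter-Glo 2.0 luminescence versus untreated cells; IC50 from four-parameter nonlinear fit of triplicate means.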

SUP-M2 cells = assay: CellTiter-Glo 2.0 cell viability assay, SUP-M2; settings: 4 days
Outline: as §1

STAT3 = molecular target: T1, STAT3 (Homo sapiens, UniProt P40763); assay: HiBiT assay, STAT3 degradation in STAT3-HiBiT KI HeLa cells; settings: 24 h; for DC50: read-out: STAT3 Degradation (HeLa 24 h HiBit) DC50
T1 construct: This cell line is a clone created by using CRISPR-Cas9 to fuse HiBiT to the 3′ end of STAT3 in HeLa cells; host or cells: STAT3-HiBiT KI HeLa cell line (CRISPR-Cas9 knock-in clone)
T1 sequence (P40763 whole entry): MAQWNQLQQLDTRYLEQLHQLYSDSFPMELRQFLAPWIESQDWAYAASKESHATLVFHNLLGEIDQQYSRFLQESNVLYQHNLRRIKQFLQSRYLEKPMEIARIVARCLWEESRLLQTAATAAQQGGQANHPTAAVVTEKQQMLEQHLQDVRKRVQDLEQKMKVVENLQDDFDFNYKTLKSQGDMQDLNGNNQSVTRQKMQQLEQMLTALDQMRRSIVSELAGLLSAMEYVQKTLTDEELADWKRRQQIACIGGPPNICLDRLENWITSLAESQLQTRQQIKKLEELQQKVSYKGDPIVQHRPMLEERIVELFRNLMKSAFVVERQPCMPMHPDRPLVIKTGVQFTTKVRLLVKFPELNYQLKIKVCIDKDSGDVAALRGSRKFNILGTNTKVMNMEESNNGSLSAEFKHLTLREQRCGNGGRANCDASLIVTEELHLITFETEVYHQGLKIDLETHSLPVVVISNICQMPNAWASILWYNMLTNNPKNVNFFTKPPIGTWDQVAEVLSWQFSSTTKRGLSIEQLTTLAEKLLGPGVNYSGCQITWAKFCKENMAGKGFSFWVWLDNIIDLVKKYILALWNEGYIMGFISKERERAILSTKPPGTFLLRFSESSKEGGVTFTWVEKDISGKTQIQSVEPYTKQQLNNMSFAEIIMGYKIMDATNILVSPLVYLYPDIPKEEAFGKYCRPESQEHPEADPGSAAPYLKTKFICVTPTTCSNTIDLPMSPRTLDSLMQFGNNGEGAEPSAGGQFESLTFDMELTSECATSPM
Outline: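 HeLa cells with CRISPR knock-in of HiBiT at the STAT3 C-terminus, 20000 cells/well, treated with serial compound dilutions for 24 h at 37 °C, 5% CO2. Remaining STAT3 read by Nano-Glo HiBiT lytic luminescence versus untreated cells; IC50 from four-parameter nonlinear fit of triplicate means.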

CCS(=O)(=O)c1ccc(CNC(=O)[C@H](CCC(N)=O)NC(=O)[C@@H]2CC[C@@H]3CCN(C(=O)CCCCCc4cn([C@H](C(=O)N5C[C@H](O)C[C@H]5C(=O)N[C@@H](C)c5ccc(-c6scnc6C)cc5)C(C)(C)C)nn4)C[C@H](NC(=O)c4cc5cc(C(=O)P(=O)(O)O)ccc5[nH]4)C(=O)N32)cc1 [Compound 14, (2-(((5S,8S,10aR)-8-(((S)-5-amino-1-((4-(ethylsulfonyl)benzyl)amino)-1,5-dioxopentan-2-yl)carbamoyl)-3-(6-(1-((S)-1-((2S,4R)-4-hydroxy-2-(((S)-1-(4-(4-methylthiazol-5-yl)phenyl)ethyl)carbamoyl)pyrrolidin-1-yl)-3,3-dimethyl-1-oxobutan-2-yl)-1H-1,2,3-triazol-4-yl)hexanoyl)-6-oxodecahydropyrrolo[1,2-a][1,5]diazocin-5-yl)carbamoyl)-1H-indole-5-carbonyl)phosphonic acid]
IC50 (SU-DHL-1 cells): < 10 nM
IC50 (SUP-M2 cells; SUP-M2, 96 h): < 10 nM
Dmax at 1 µM (STAT3): > 80%
DC50 (STAT3): < 10 nM

CC(=O)N1CC[C@H]2CC[C@@H](C(=O)N[C@@H](CCC(N)=O)COc3cccc(CCCCNC(=O)C[C@H](NC(=O)[C@@H]4C[C@@H](O)CN4C(=O)[C@@H](n4cc(C5CC5)nn4)C(C)(C)C)c4ccc(-c5scnc5C)cc4)c3Cl)N2C(=O)[C@@H](NC(=O)c2cc3cc(C(=O)P(=O)(O)O)ccc3[nH]2)C1 [Compound 7, (2-(((5S,8S,10aR)-3-acetyl-8-(((S)-5-amino-1-(2-chloro-3-(4-((S)-3-((2S,4R)-1-((S)-2-(4-cyclopropyl-1H-1,2,3-triazol-1-yl)-3,3-dimethylbutanoyl)-4-hydroxypyrrolidine-2-carboxamido)-3-(4-(4-methylthiazol-5-yl)phenyl)propanamido)butyl)phenoxy)-5-oxopentan-2-yl)carbamoyl)-6-oxodecahydropyrrolo[1,2-a][1,5]diazocin-5-yl)carbamoyl)-1H-indole-5-carbonyl)phosphonic acid]
IC50 (SU-DHL-1 cells): 10 to 100 nM
IC50 (SUP-M2 cells; SUP-M2, 96 h): < 10 nM
Dmax at 1 µM (STAT3): > 80%
DC50 (STAT3): < 10 nM

Cc1ncsc1-c1ccc([C@H](C)NC(=O)[C@@H]2C[C@@H](O)CN2C(=O)[C@@H](n2cc(CCCCC(=O)N3CC[C@H]4CC[C@@H](C(=O)N[C@@H](CCC(N)=O)C(=O)NC(c5ccccc5)c5ccccc5)N4C(=O)[C@@H](NC(=O)c4cc5cc(C(=O)P(=O)(O)O)ccc5[nH]4)C3)nn2)C(C)(C)C)cc1 [Compound 13, (2-(((5S,8S,10aR)-8-(((S)-5-amino-1-(benzhydrylamino)-1,5-dioxopentan-2-yl)carbamoyl)-3-(5-(1-((S)-1-((2S,4R)-4-hydroxy-2-(((S)-1-(4-(4-methylthiazol-5-yl)phenyl)ethyl)carbamoyl)pyrrolidin-1-yl)-3,3-dimethyl-1-oxobutan-2-yl)-1H-1,2,3-triazol-4-yl)pentanoyl)-6-oxodecahydropyrrolo[1,2-a][1,5]diazocin-5-yl)carbamoyl)-1H-indole-5-carbonyl)phosphonic acid]
IC50 (SU-DHL-1 cells): 100 to 1000 nM
IC50 (SUP-M2 cells): 10 to 100 nM
Dmax at 1 µM (STAT3): > 80%
DC50 (STAT3): 10 to 100 nM

Cc1ncsc1-c1ccc([C@H](C)NC(=O)[C@@H]2C[C@@H](O)CN2C(=O)[C@@H](n2cc(CC(=O)N3CC[C@H]4CC[C@@H](C(=O)N[C@@H](CCC(N)=O)C(=O)NC(c5ccccc5)c5ccccc5)N4C(=O)[C@@H](NC(=O)c4cc5cc(C(=O)P(=O)(O)O)ccc5[nH]4)C3)nn2)C(C)(C)C)cc1 [Compound 54, (2-(((5S,8S,10aR)-8-(((S)-5-amino-1-(benzhydrylamino)-1,5-dioxopentan-2-yl)carbamoyl)-3-(2-(1-((S)-1-((2S,4R)-4-hydroxy-2-(((S)-1-(4-(4-methylthiazol-5-yl)phenyl)ethyl)carbamoyl)pyrrolidin-1-yl)-3,3-dimethyl-1-oxobutan-2-yl)-1H-1,2,3-triazol-4-yl)acetyl)-6-oxodecahydropyrrolo[1,2-a][1,5]diazocin-5-yl)carbamoyl)-1H-indole-5-carbonyl)phosphonic acid]
IC50 (SU-DHL-1 cells): > 1000 nM
IC50 (SUP-M2 cells; SUP-M2, 96 h): > 1000 nM
DC50 (STAT3): > 1000 nM

CC(=O)N1CC[C@H]2CC[C@@H](C(=O)N[C@@H](CCC(N)=O)COc3cccc(CCCc4cn([C@H](C(=O)N5C[C@H](O)C[C@H]5C(=O)N[C@@H](C)c5ccc(-c6scnc6C)cc5)C5CCCCC5)nn4)c3Cl)N2C(=O)[C@@H](NC(=O)c2cc3cc(C(=O)P(=O)(O)O)ccc3[nH]2)C1 [Compound 19, (2-(((5S,8S,10aR)-3-acetyl-8-(((S)-5-amino-1-(2-chloro-3-(3-(1-((S)-1-cyclohexyl-2-((2S,4R)-4-hydroxy-2-(((S)-1-(4-(4-methylthiazol-5-yl)phenyl)ethyl)carbamoyl)pyrrolidin-1-yl)-2-oxoethyl)-1H-1,2,3-triazol-4-yl)propyl)phenoxy)-5-oxopentan-2-yl)carbamoyl)-6-oxodecahydropyrrolo[1,2-a][1,5]diazocin-5-yl)carbamoyl)-1H-indole-5-carbonyl)phosphonic acid]
IC50 (SU-DHL-1 cells): < 10 nM
IC50 (SUP-M2 cells; SUP-M2, 96 h): < 10 nM
Dmax at 1 µM (STAT3): > 80%
DC50 (STAT3): < 10 nM

Cc1ncsc1-c1ccc([C@H](C)NC(=O)[C@@H]2C[C@@H](O)CN2C(=O)[C@@H](n2cc(CCC(=O)N3CC[C@H]4CC[C@@H](C(=O)N[C@@H](CCC(N)=O)C(=O)NC(c5ccccc5)c5ccccc5)N4C(=O)[C@@H](NC(=O)c4cc5cc(C(=O)P(=O)(O)O)ccc5[nH]4)C3)nn2)C(C)(C)C)cc1 [Compound 55, (2-(((5S,8S,10aR)-8-(((S)-5-amino-1-(benzhydrylamino)-1,5-dioxopentan-2-yl)carbamoyl)-3-(3-(1-((S)-1-((2S,4R)-4-hydroxy-2-(((S)-1-(4-(4-methylthiazol-5-yl)phenyl)ethyl)carbamoyl)pyrrolidin-1-yl)-3,3-dimethyl-1-oxobutan-2-yl)-1H-1,2,3-triazol-4-yl)propanoyl)-6-oxodecahydropyrrolo[1,2-a][1,5]diazocin-5-yl)carbamoyl)-1H-indole-5-carbonyl)phosphonic acid]
IC50 (SU-DHL-1 cells): > 1000 nM
IC50 (SUP-M2 cells; SUP-M2, 96 h): > 1000 nM
DC50 (STAT3): > 1000 nM

CC(=O)N1CC[C@H]2CC[C@@H](C(=O)N[C@@H](CCC(N)=O)COc3cccc(CCCc4cn(C[C@H](NC(=O)[C@@H]5C[C@@H](O)CN5C(=O)[C@@H](n5cc(C6CC6)nn5)C(C)(C)C)c5ccc(-c6scnc6C)cc5)nn4)c3Cl)N2C(=O)[C@@H](NC(=O)c2cc3cc(C(=O)P(=O)(O)O)ccc3[nH]2)C1 [Compound 6, (2-(((5S,8S,10aR)-3-acetyl-8-(((S)-5-amino-1-(2-chloro-3-(3-(1-((R)-2-((2S,4R)-1-((S)-2-(4-cyclopropyl-1H-1,2,3-triazol-1-yl)-3,3-dimethylbutanoyl)-4-hydroxypyrrolidine-2-carboxamido)-2-(4-(4-methylthiazol-5-yl)phenyl)ethyl)-1H-1,2,3-triazol-4-yl)propyl)phenoxy)-5-oxopentan-2-yl)carbamoyl)-6-oxodecahydropyrrolo[1,2-a][1,5]diazocin-5-yl)carbamoyl)-1H-indole-5-carbonyl)phosphonic acid]
IC50 (SU-DHL-1 cells): 10 to 100 nM
IC50 (SUP-M2 cells; SUP-M2, 96 h): 10 to 100 nM
Dmax at 1 µM (STAT3): > 80%
DC50 (STAT3): < 10 nM

CC(=O)N1CC[C@H]2CC[C@@H](C(=O)N[C@@H](CCC(N)=O)COc3cccc(CCCc4cn([C@H](C(=O)N5C[C@H](O)C[C@H]5C(=O)N[C@@H](CO)c5ccc(-c6scnc6C)cc5)C(C)(C)C)nn4)c3Cl)N2C(=O)[C@@H](NC(=O)c2cc3cc(C(=O)P(=O)(O)O)ccc3[nH]2)C1 [Compound 39, (2-(((5S,8S,10aR)-3-acetyl-8-(((S)-5-amino-1-(2-chloro-3-(3-(1-((S)-1-((2S,4R)-4-hydroxy-2-(((R)-2-hydroxy-1-(4-(4-methylthiazol-5-yl)phenyl)ethyl)carbamoyl)pyrrolidin-1-yl)-3,3-dimethyl-1-oxobutan-2-yl)-1H-1,2,3-triazol-4-yl)propyl)phenoxy)-5-oxopentan-2-yl)carbamoyl)-6-oxodecahydropyrrolo[1,2-a][1,5]diazocin-5-yl)carbamoyl)-1H-indole-5-carbonyl)phosphonic acid]
IC50 (SU-DHL-1 cells): < 10 nM
IC50 (SUP-M2 cells; SUP-M2, 96 h): < 10 nM
Dmax at 1 µM (STAT3): > 80%
DC50 (STAT3): < 10 nM

Cc1ncsc1-c1ccc([C@H](C)NC(=O)[C@@H]2C[C@@H](O)CN2C(=O)[C@@H](NC(=O)CCCCCCC(=O)N2CC[C@H]3CC[C@@H](C(=O)N[C@@H](CCC(N)=O)C(=O)NC(c4ccccc4)c4ccccc4)N3C(=O)[C@@H](NC(=O)c3cc4cc(C(=O)P(=O)(O)O)ccc4[nH]3)C2)C(C)(C)C)cc1 [Compound 51, (2-(((5S,8S,10aR)-8-(((S)-5-amino-1-(benzhydrylamino)-1,5-dioxopentan-2-yl)carbamoyl)-3-(8-(((S)-1-((2S,4R)-4-hydroxy-2-(((S)-1-(4-(4-methylthiazol-5-yl)phenyl)ethyl)carbamoyl)pyrrolidin-1-yl)-3,3-dimethyl-1-oxobutan-2-yl)amino)-8-oxooctanoyl)-6-oxodecahydropyrrolo[1,2-a][1,5]diazocin-5-yl)carbamoyl)-1H-indole-5-carbonyl)phosphonic acid]
IC50 (SU-DHL-1 cells): 100 to 1000 nM
IC50 (SUP-M2 cells; SUP-M2, 96 h): 100 to 1000 nM
DC50 (STAT3): 100 to 1000 nM
